ChEMBL document CHEMBL3046879, “Synthesis, antimicrobial evaluation, and QSAR analysis of 2-isopropyl-5-methylcyclohexanol derivatives” (Med Chem Res, 2012)

Legend:
[1] = tested on: Aspergillus niger; assay: Antimicrobial activity against Aspergillus niger MTCC 2425 after 7 days by serial dilution method; format: functional
[2] = tested on: Bacillus subtilis; assay: Antimicrobial activity against Bacillus subtilis MTCC 2423 after 24 hr by serial dilution method; format: functional
[3] = tested on: Candida albicans; assay: Antimicrobial activity against Candida albicans MTCC 227 after 2 days by serial dilution method; format: functional
[4] = Octanol-water partition coefficient, log P of the compound; format: physicochemical
[5] = tested on: Escherichia coli; assay: Antimicrobial activity against Escherichia coli MTCC 739 after 24 hr by serial dilution method; format: functional
[6] = tested on: Staphylococcus aureus; assay: Antimicrobial activity against Staphylococcus aureus MTCC 1430 after 24 hr by serial dilution method; format: functional

SMILES | -logMIC [1] | -logMIC [2] | -logMIC [3] | logP [4] | -logMIC [5] | -logMIC [6]
COc1ccccc1C(=O)O[C@@H]1C[C@H](C)CC[C@H]1C(C)C | 2.07 | 1.98 | 1.97 | 4.57 | 1.97 | 2.06
CC(C)[C@@H]1CC[C@@H](C)C[C@H]1OC(=O)/C=C/c1ccc([N+](=O)[O-])cc1 | 2.18 | 2.33 | 2.33 | 5.18 | 2.33 | 2.03
CC(Cl)C(=O)O[C@@H]1C[C@H](C)CC[C@H]1C(C)C (stereo partly specified) | 1.9 | 1.9 | 1.9 | 4.04 | 1.9 | 1.6
CC(=O)O[C@@H]1C[C@H](C)CC[C@H]1C(C)C | 1.98 | 1.8 | 1.8 | 2.91 | 1.5 | 1.5
COc1cccc(C(=O)O[C@@H]2C[C@H](C)CC[C@H]2C(C)C)c1 | 2.11 | 1.99 | 1.97 | 4.57 | 1.97 | 1.97
CC(C)[C@@H]1CC[C@@H](C)C[C@H]1OC(=O)c1ccccc1Br | 2.04 | 2.04 | 2.04 | 5.61 | 1.98 | 2.04
Cc1ccc(C(=O)O[C@@H]2C[C@H](C)CC[C@H]2C(C)C)cc1 | 2.04 | 2.1 | 1.94 | 5.29 | 1.9 | 1.85
CC(C)[C@@H]1CC[C@@H](C)C[C@H]1OC(=O)c1ccc([N+](=O)[O-])cc1[N+](=O)[O-] | 2.05 | 2.05 | 2.05 | 4.73 | 2.35 | 2.35
CC(C)[C@@H]1CC[C@@H](C)C[C@H]1OC(=O)c1ccc(Cl)cc1 | 2.05 | 1.97 | 1.67 | 5.34 | 1.67 | 1.88
CC(C)[C@@H]1CC[C@@H](C)C[C@H]1OC(=O)c1ccc(Cl)cc1Cl | 1.95 | 1.96 | 1.72 | 5.86 | 2.02 | 2.02
COc1ccc(C(=O)O[C@@H]2C[C@H](C)CC[C@H]2C(C)C)cc1 | 2.04 | 2.01 | 1.67 | 4.57 | 1.98 | 2.01
Cc1ccccc1C(=O)O[C@@H]1C[C@H](C)CC[C@H]1C(C)C | 1.94 | 1.94 | 1.64 | 5.29 | 2.01 | 1.94
CC(C)[C@@H]1CC[C@@H](C)C[C@H]1OC(=O)c1ccc([N+](=O)[O-])cc1 | 2.18 | 2.02 | 2.29 | 4.78 | 1.99 | 2.29
CCC(=O)O[C@@H]1C[C@H](C)CC[C@H]1C(C)C | 2.13 | 1.88 | 1.83 | 3.54 | 1.75 | 1.75
CC(C)[C@@H]1CC[C@@H](C)C[C@H]1OC(=O)c1ccccc1Cl | 2.1 | 1.91 | 1.97 | 5.34 | 2.1 | 1.97
CC(C)[C@@H]1CC[C@@H](C)C[C@H]1OC(=O)c1ccc(Br)cc1 | 2.04 | 2.04 | 1.85 | 5.61 | 2.02 | 1.98
CC(C)[C@@H]1CC[C@@H](C)C[C@H]1OC(=O)/C=C/c1ccccc1[N+](=O)[O-] | 2.33 | 2.03 | 2.33 | 5.18 | 2.33 | 2.33
CC(C)[C@@H]1CC[C@@H](C)C[C@H]1OC(=O)/C=C/c1cccc([N+](=O)[O-])c1 | 2.33 | 2.03 | 2.33 | 5.18 | 2.14 | 2.33
CCn1cc(C(=O)O)c(=O)c2cc(F)c(N3CCNCC3)cc21 [NORFLOXACIN] |  | 2.61 |  |  | 2.61 | 2.61
CC(C)[C@@H]1CC[C@@H](C)C[C@H]1OC(=O)c1ccccc1[N+](=O)[O-] | 2.17 | 2.03 | 2.29 | 4.78 | 2.29 | 1.99
CC(C)[C@@H]1CC[C@@H](C)C[C@H]1OC(=O)c1cccc(Br)c1 | 2.04 | 1.96 | 2.04 | 5.61 | 1.88 | 1.96
OC(Cn1cncn1)(Cn1cncn1)c1ccc(F)cc1F [FLUCONAZOLE] | 2.64 |  | 2.64 |  |  | 
CC(C)[C@@H]1CC[C@@H](C)C[C@H]1OC(=O)c1cccc(Cl)c1 | 1.97 | 1.97 | 1.97 | 5.34 | 1.88 | 1.97
Cc1cccc(C(=O)O[C@@H]2C[C@H](C)CC[C@H]2C(C)C)c1 | 2.03 | 2.02 | 1.94 | 5.29 | 1.93 | 2.05
CC(C)[C@@H]1CC[C@@H](C)C[C@H]1OC(=O)c1cccc([N+](=O)[O-])c1 | 2.29 | 1.99 | 2.33 | 4.78 | 2.29 | 2.29
CC(C)[C@@H]1CC[C@@H](C)C[C@H]1OC(=O)/C=C/c1ccccc1 | 2.01 | 2.26 | 1.96 | 5.23 | 1.96 | 1.96
CC(C)[C@@H]1CC[C@@H](C)C[C@H]1OC(=O)c1ccccc1 [MENTHYL BENZOATE] | 1.92 | 2.01 | 1.92 | 4.82 | 2.01 | 1.92
CC(C)[C@@H]1CC[C@@H](C)C[C@H]1OC(=O)CCl | 2.17 | 1.86 | 1.87 | 3.5 | 1.79 | 2
